Measurements taken from ChEMBL document CHEMBL1201861, “Genomics of Drug Sensitity in Cancer screening data, Wellcome Trust Sanger Institute”.
Where a name gives a salt, the structure may show the parent alone.

How the values were obtained:
D-542MG = assay: cells; format: functional, cell-based, Homo sapiens; conditions: Homo sapiens, D-542MG
Description: SANGER: Inhibition of human D-542MG cell growth in a cell viability assay.

DK-MG = assay: cells; format: functional, cell-based, Homo sapiens; conditions: Homo sapiens, DK-MG;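 note: growth inhibition of DK-MG cells, read out with a cell viability assay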
Description: SANGER: Inhibition of human DK-MG cell growth in a cell viability assay.

DMS-273 = assay: cells; format: functional, cell-based, Homo sapiens; conditions: Homo sapiens, DMS-273
Description: SANGER: Inhibition of human DMS-273 cell growth in a cell viability assay.

DU-145 = assay: cells; format: functional, cell-based, Homo sapiens; conditions: Homo sapiens, DU-145
Description: SANGER: Inhibition of human DU-145 cell growth in a cell viability assay.

FTC-133 = assay: cells; format: functional, cell-based, Homo sapiens; conditions: Homo sapiens, FTC-133
HCC1419 = assay: cells; format: functional, cell-based, Homo sapiens; conditions: Homo sapiens, HCC1419;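 note: growth inhibition of human HCC1419 cells, read out as cell viability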
Description: SANGER: Inhibition of human HCC1419 cell growth in a cell viability assay.

HCC70 = assay: cells; format: functional, cell-based, Homo sapiens; conditions: Homo sapiens, HCC70;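 note: cell viability assay measuring how strongly the compound suppresses proliferation of HCC70 cells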
Description: SANGER: Inhibition of human HCC70 cell growth in a cell viability assay.

HPAF-II = assay: cells; format: functional, cell-based, Homo sapiens; conditions: Homo sapiens, HPAF-II;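 note: growth inhibition of HPAF-II cells, read out with a cell viability assay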
Description: SANGER: Inhibition of human HPAF-II cell growth in a cell viability assay.

HuCCT-1 = assay: cells; format: functional, cell-based, Homo sapiens, HuCCT1; conditions: Homo sapiens, HuCCT-1;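 note: growth inhibition of HuCCT-1 cells, read out by a cell viability assay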
Description: SANGER: Inhibition of human HuCCT1 cell growth in a cell viability assay.

IM-9 = assay: SANGER: Inhibition of human IM-9 cell growth in a cell viability assay.; format: functional, cell-based; conditions: Homo sapiens, IM-9
J82 = assay: cells; format: functional, cell-based, Homo sapiens; conditions: Homo sapiens, J82;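 note: growth inhibition of J82 cells, read out with a cell viability assay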
Description: SANGER: Inhibition of human J82 cell growth in a cell viability assay.

K052 = assay: cells; format: functional, cell-based, Homo sapiens; conditions: Homo sapiens, K052;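 note: Read-out from a cell viability assay, IC50 reflecting suppression of K052 cell growth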
Description: SANGER: Inhibition of human K052 cell growth in a cell viability assay.

KP-N-YN = assay: cells; format: functional, cell-based, Homo sapiens; conditions: Homo sapiens, KP-N-YN;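 note: growth inhibition of KP-N-YN cells, read out with a cell viability assay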
Description: SANGER: Inhibition of human KP-N-YN cell growth in a cell viability assay.

LoVo = assay: cells; format: functional, cell-based, Homo sapiens; conditions: Homo sapiens, LoVo;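 note: growth inhibition of human LoVo cells, read out with a cell viability assay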
Description: SANGER: Inhibition of human LoVo cell growth in a cell viability assay.

MC-IXC = assay: cells; format: functional, cell-based, Homo sapiens; conditions: Homo sapiens, MC-IXC;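 note: growth inhibition of MC-IXC cells, read out with a cell viability assay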
Description: SANGER: Inhibition of human MC-IXC cell growth in a cell viability assay.

MDA-MB-453 = assay: cells; format: functional, cell-based, Homo sapiens; conditions: Homo sapiens, MDA-MB-453
Description: SANGER: Inhibition of human MDA-MB-453 cell growth in a cell viability assay.

NCI-H1703 = assay: cells; format: functional, cell-based, Homo sapiens; conditions: Homo sapiens, NCI-H1703;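 note: growth inhibition of NCI-H1703 cells, read out via a cell viability assay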
Description: SANGER: Inhibition of human NCI-H1703 cell growth in a cell viability assay.

NCI-H2141 = assay: cells; format: functional, cell-based, Homo sapiens; conditions: Homo sapiens, NCI-H2141;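 note: growth inhibition of human NCI-H2141 cells, read out with a cell viability assay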
Description: SANGER: Inhibition of human NCI-H2141 cell growth in a cell viability assay.

NCI-H2405 = assay: cells; format: functional, cell-based, Homo sapiens; conditions: Homo sapiens, NCI-H2405;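 note: growth inhibition of the human cell line, read out with a cell viability assay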
Description: SANGER: Inhibition of human NCI-H2405 cell growth in a cell viability assay.

NCI-H28 = assay: cells; format: functional, cell-based, Homo sapiens; conditions: Homo sapiens, NCI-H28;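 note: growth inhibition of human NCI-H28 cells, read out as cell viability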
Description: SANGER: Inhibition of human NCI-H28 cell growth in a cell viability assay.

NCI-H345 = assay: cells; format: functional, cell-based, Homo sapiens; conditions: Homo sapiens, NCI-H345;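 note: growth inhibition of NCI-H345 cells measured with a cell viability assay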
Description: SANGER: Inhibition of human NCI-H345 cell growth in a cell viability assay.

NCI-H650 = assay: cells; format: functional, cell-based, Homo sapiens; conditions: Homo sapiens, NCI-H650;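 note: growth inhibition of NCI-H650 cells, read out by a viability assay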
Description: SANGER: Inhibition of human NCI-H650 cell growth in a cell viability assay.

NCI-H719 = assay: cells; format: functional, cell-based, Homo sapiens; conditions: Homo sapiens, NCI-H719;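 note: growth inhibition of the cultured cell line, read out with a viability assay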
Description: SANGER: Inhibition of human NCI-H719 cell growth in a cell viability assay.

NCI-H810 = assay: cells; format: functional, cell-based, Homo sapiens; conditions: Homo sapiens, NCI-H810;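 note: IC50 reflects inhibition of cancer cell line growth, read out with a cell viability assay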
Description: SANGER: Inhibition of human NCI-H810 cell growth in a cell viability assay.

NCI-H889 = assay: cells; format: functional, cell-based, Homo sapiens; conditions: Homo sapiens, NCI-H889;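 note: cell growth inhibition of the cell line, read out with a viability assay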
Description: SANGER: Inhibition of human NCI-H889 cell growth in a cell viability assay.

SNU-16 = assay: cells; format: functional, cell-based, Homo sapiens; conditions: Homo sapiens, SNU-16;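 note: growth inhibition of human SNU-16 cells, determined with a cell viability readout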
Description: SANGER: Inhibition of human NCI-SNU-16 cell growth in a cell viability assay.

OE19 = assay: cells; format: functional, cell-based, Homo sapiens; conditions: Homo sapiens, OE19;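 note: growth inhibition of OE19 cells, measured through a cell viability read-out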
Description: SANGER: Inhibition of human OE19 cell growth in a cell viability assay.

RD = assay: cells; format: functional, cell-based, Homo sapiens; conditions: Homo sapiens, RD
Description: SANGER: Inhibition of human RD cell growth in a cell viability assay.

RPMI-6666 = assay: cells; format: functional, cell-based, Homo sapiens; conditions: Homo sapiens, RPMI-6666
Description: SANGER: Inhibition of human RPMI-6666 cell growth in a cell viability assay.

SCC-4 = assay: cells; format: functional, cell-based, Homo sapiens; conditions: Homo sapiens, SCC-4;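 note: growth inhibition of human SCC-4 cells, read out as cell viability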
Description: SANGER: Inhibition of human SCC-4 cell growth in a cell viability assay.

SK-MEL-28 = assay: cells; format: functional, cell-based, Homo sapiens; conditions: Homo sapiens, SK-MEL-28;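 note: growth inhibition of human SK-MEL-28 cells, read out with a cell viability assay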
Description: SANGER: Inhibition of human SK-MEL-28 cell growth in a cell viability assay.

SNU-C1 = assay: cells; format: functional, cell-based, Homo sapiens; conditions: Homo sapiens, SNU-C1;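 note: growth inhibition of SNU-C1 human cells, read out by a cell viability assay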
Description: SANGER: Inhibition of human SNU-C1 cell growth in a cell viability assay.

SW1573 = assay: cells; format: functional, cell-based, Homo sapiens; conditions: Homo sapiens, SW1573;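 note: growth inhibition of SW1573 cells, read out with a cell viability assay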
Description: SANGER: Inhibition of human SW1573 cell growth in a cell viability assay.

SW948 = assay: cells; format: functional, cell-based, Homo sapiens; conditions: Homo sapiens, SW948;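 note: growth inhibition of SW948 cells, read out with a cell viability assay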
Description: SANGER: Inhibition of human SW948 cell growth in a cell viability assay.

23132-87 = assay: cells; format: functional, cell-based, Homo sapiens; conditions: Homo sapiens
Description: SANGER: Inhibition of human 23132-87 cell growth in a cell viability assay.

A-375 = assay: cells; format: functional, cell-based, Homo sapiens; conditions: Homo sapiens, A-375;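 note: growth inhibition of A375 cells, read out with a cell viability assay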
Description: SANGER: Inhibition of human A375 cell growth in a cell viability assay.

ASPC1 = assay: cells; format: functional, cell-based, Homo sapiens; conditions: Homo sapiens, ASPC1;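 note: growth inhibition of AsPC-1 cells, read out with a cell viability assay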
Description: SANGER: Inhibition of human AsPC-1 cell growth in a cell viability assay.

BEN = assay: cells; format: functional, cell-based, Homo sapiens; conditions: Homo sapiens, BEN;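 note: growth inhibition of the BEN cell line, read out with a cell viability assay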
Description: SANGER: Inhibition of human BEN cell growth in a cell viability assay.

C-33-A = assay: cells; format: functional, cell-based, Homo sapiens; conditions: Homo sapiens, C-33-A;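 note: cell viability assay measuring growth inhibition of C-33-A cells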
Description: SANGER: Inhibition of human C-33-A cell growth in a cell viability assay.

CAL-27 = assay: cells; format: functional, cell-based, Homo sapiens; conditions: Homo sapiens, CAL-27;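 note: Viability-based readout, IC50 reflecting inhibition of CAL-27 cell growth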
Description: SANGER: Inhibition of human CAL-27 cell growth in a cell viability assay.

CAL-54 = assay: cells; format: functional, cell-based, Homo sapiens; conditions: Homo sapiens, CAL-54;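 note: growth inhibition of CAL-54 cells, read out by a viability measurement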
Description: SANGER: Inhibition of human CAL-54 cell growth in a cell viability assay.

TUR = assay: cells; format: functional, cell-based, Homo sapiens; conditions: Homo sapiens, TUR;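 note: growth inhibition of human TUR cells, read out with a cell viability assay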
Description: SANGER: Inhibition of human TUR cell growth in a cell viability assay.

CESS = assay: SANGER: Inhibition of human CESS cell growth in a cell viability assay.; format: functional, cell-based; conditions: Homo sapiens, CESS
CHL-1 = assay: cells; format: functional, cell-based, Homo sapiens; conditions: Homo sapiens, CHL-1;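 note: cell growth inhibition, read out with a cell viability assay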
Description: SANGER: Inhibition of human CHL-1 cell growth in a cell viability assay.

COc1cccc2c1C(=O)c1c(O)c3c(c(O)c1C2=O)C[C@@](O)(C(=O)CO)C[C@@H]3O[C@H]1C[C@H](N)[C@H](O)[C@H](C)O1 [DOXORUBICIN]
IC50 (D-542MG): > 1020 nM | IC50 (DK-MG): > 1020 nM | IC50 (DMS-273): 78.9 nM | IC50 (DU-145): 73.7 nM | IC50 (FTC-133): 0.229 µM | IC50 (HCC1419): 632 nM | IC50 (HCC70): > 1020 nM | IC50 (HPAF-II): 527 nM | IC50 (HuCCT-1): 72.9 nM | IC50 (IM-9): 51.4 nM | IC50 (J82): 21.3 nM | IC50 (K052): > 1020 nM | IC50 (KP-N-YN): > 1.02 µM | IC50 (LoVo): 81.8 nM | IC50 (MC-IXC): 67.9 nM | IC50 (MDA-MB-453): > 1020 nM | IC50 (NCI-H1703): 126 nM | IC50 (NCI-H2141): 574 nM | IC50 (NCI-H2405): 234 nM | IC50 (NCI-H28): > 1020 nM | IC50 (NCI-H345): > 1.02 µM | IC50 (NCI-H650): 218 nM | IC50 (NCI-H719): 0.0397 µM | IC50 (NCI-H810): 18.8 nM | IC50 (NCI-H889): > 1.02 µM | IC50 (SNU-16): > 1.02 µM | IC50 (OE19): 200 nM | IC50 (RD): 180 nM | IC50 (RPMI-6666): 66 nM | IC50 (SCC-4): 184 nM | IC50 (SK-MEL-28): > 1020 nM | IC50 (SNU-C1): > 1.02 µM | IC50 (SW1573): 82.8 nM | IC50 (SW948): > 1.02 µM | IC50 (23132-87): 15.4 nM | IC50 (A-375): 9.17 nM | IC50 (ASPC1): 0.855 µM | IC50 (BEN): > 1020 nM | IC50 (C-33-A): 32.9 nM | IC50 (CAL-27): 32.6 nM | IC50 (CAL-54): 301 nM | IC50 (TUR): 76.3 nM | IC50 (CESS): 39.4 nM | IC50 (CHL-1): 37.7 nM

O=C(O)c1ccc(-c2c[nH]c3ncc(-c4ccccc4)cc23)cc1C1CCCC1 [GSK-650394]
IC50 (D-542MG): > 16000 nM | IC50 (DK-MG): > 16000 nM | IC50 (DMS-273): > 16000 nM | IC50 (DU-145): > 16000 nM | IC50 (FTC-133): > 16 µM | IC50 (HCC1419): > 16000 nM | IC50 (HCC70): > 16000 nM | IC50 (HPAF-II): > 16000 nM | IC50 (HuCCT-1): > 16000 nM | IC50 (IM-9): > 16000 nM | IC50 (J82): 8200 nM | IC50 (K052): > 16000 nM | IC50 (KP-N-YN): 15.8 µM | IC50 (LoVo): 9910 nM | IC50 (MC-IXC): > 16000 nM | IC50 (MDA-MB-453): > 16000 nM | IC50 (NCI-H1703): > 16000 nM | IC50 (NCI-H2141): > 16000 nM | IC50 (NCI-H2405): > 16000 nM | IC50 (NCI-H28): > 16000 nM | IC50 (NCI-H345): > 16 µM | IC50 (NCI-H650): 6640 nM | IC50 (NCI-H719): > 16 µM | IC50 (NCI-H810): > 16000 nM | IC50 (NCI-H889): > 16 µM | IC50 (SNU-16): > 16 µM | IC50 (OE19): > 16000 nM | IC50 (RD): > 16000 nM | IC50 (RPMI-6666): > 16000 nM | IC50 (SCC-4): > 16000 nM | IC50 (SK-MEL-28): > 16000 nM | IC50 (SNU-C1): > 16 µM | IC50 (SW1573): > 16000 nM | IC50 (SW948): > 16 µM | IC50 (23132-87): 10300 nM | IC50 (A-375): 5250 nM | IC50 (ASPC1): > 16 µM | IC50 (BEN): > 16000 nM | IC50 (C-33-A): 8530 nM | IC50 (CAL-27): 5330 nM | IC50 (CAL-54): > 16000 nM | IC50 (TUR): 4670 nM | IC50 (CESS): > 16000 nM | IC50 (CHL-1): 3500 nM

COC1=CC(c2cc3ccccc3[nH]2)=N/C1=C\c1[nH]c(C)cc1C [OBATOCLAX MESYLATE]
IC50 (D-542MG): 170 nM | IC50 (DK-MG): 710 nM | IC50 (DMS-273): 28.5 nM | IC50 (DU-145): 467 nM | IC50 (FTC-133): 3.65 µM | IC50 (HCC1419): 1830 nM | IC50 (HCC70): 1460 nM | IC50 (HPAF-II): 1940 nM | IC50 (HuCCT-1): 83.3 nM | IC50 (IM-9): 330 nM | IC50 (J82): 109 nM | IC50 (K052): 940 nM | IC50 (KP-N-YN): > 16 µM | IC50 (LoVo): 87.2 nM | IC50 (MC-IXC): 345 nM | IC50 (MDA-MB-453): 2230 nM | IC50 (NCI-H1703): 594 nM | IC50 (NCI-H2141): 1190 nM | IC50 (NCI-H2405): 347 nM | IC50 (NCI-H28): 741 nM | IC50 (NCI-H345): > 16 µM | IC50 (NCI-H650): 283 nM | IC50 (NCI-H719): 4.15 µM | IC50 (NCI-H810): 117 nM | IC50 (NCI-H889): > 16 µM | IC50 (SNU-16): 13.1 µM | IC50 (OE19): 1660 nM | IC50 (RD): 140 nM | IC50 (RPMI-6666): 89.7 nM | IC50 (SCC-4): 2140 nM | IC50 (SK-MEL-28): 1230 nM | IC50 (SNU-C1): > 16 µM | IC50 (SW1573): 2020 nM | IC50 (SW948): 7.58 µM | IC50 (23132-87): 828 nM | IC50 (A-375): < 62.5 nM | IC50 (ASPC1): 7.49 µM | IC50 (BEN): 1070 nM | IC50 (C-33-A): < 62.5 nM | IC50 (CAL-27): 64.6 nM | IC50 (CAL-54): 1310 nM | IC50 (TUR): 1160 nM | IC50 (CESS): 82.7 nM | IC50 (CHL-1): 48.6 nM
